Results taken from ChEMBL document CHEMBL3046941, “Synthesis of novel isoxazolines via 1,3-dipolar cycloaddition and evaluation of anti-stress activity” (2011).

How the values were obtained:
Assay type in all cases: functional
Rattus norvegicus [1] = test: Antistress activity in Rattus norvegicus Sprague-Dawley (rat) assessed as inhibition of acute stress-induced increase in corticosterone level at 40 mg/kg, po (reference value: 465.7 +/- 15.77 ng/ml)
Rattus norvegicus [2] = test: Antistress activity in Rattus norvegicus Sprague-Dawley (rat) assessed as inhibition of acute stress-induced plasma creatinine kinase activity at 40 mg/kg, po (reference value: 1115 +/- 29.43 IU/dl)
Rattus norvegicus [3] = test: Antistress activity in Rattus norvegicus Sprague-Dawley (rat) assessed as inhibition of acute stress-induced hyperglycemia measured as glucose level at 40 mg/kg, po (reference value: 134.7 +/- 4.68 mg/dl)
Rattus norvegicus [4] = test: Antistress activity in Rattus norvegicus Sprague-Dawley (rat) assessed as inhibition of acute stress-induced adrenal hypertrophy measured as adrenal gland weight per 100 g of body weight at 40 mg/kg, po (reference value: 10.20 +/- 0.69 mg)

Row | Structure (SMILES) | Activity (Rattus norvegicus [1]) | Activity (Rattus norvegicus [2]) | Activity (Rattus norvegicus [3]) | Activity (Rattus norvegicus [4])
1 | COc1cc(CC2CC(c3cccc4ccccc34)=NO2)ccc1OC(C)=O (stereo unspecified) | 311.8 ng/mL | 673 IU/dl | 74.67 mg/dL | 7.77 mg
2 | COc1ccc(C2=NOC(Cc3ccc(OC(C)=O)c(OC)c3)C2)c(OC)c1 (stereo unspecified) | 364.2 ng/mL | 766.71 IU/dl | 107.2 mg/dL | 7.01 mg
3 | COc1ccc(C2=NOC(Cc3ccc(OCCN4CCCCC4)c(OC)c3)C2)c(OC)c1 (stereo unspecified) | 320 ng/mL | 733.8 IU/dl | 101.7 mg/dL | 7.6 mg
4 | COc1cc(CC2CC(c3cccc4ccccc34)=NO2)ccc1O (stereo unspecified) | 417.2 ng/mL | 998.5 IU/dl | 86.24 mg/dL | 9.86 mg
5 | COc1cc(CC2CC(c3cccc4ccccc34)=NO2)ccc1OCCN1CCCC1 (stereo unspecified) | 421 ng/mL | 1074 IU/dl | 125 mg/dL | 10.58 mg
6 | COc1ccc(C2=NOC(Cc3ccc(OC)c(OC)c3)C2)c(OC)c1 (stereo unspecified) | 446 ng/mL | 1092 IU/dl | 122 mg/dL | 9.63 mg
7 | COc1ccc(CC2CC(c3cccc4ccccc34)=NO2)cc1OC (stereo unspecified) | 293.5 ng/mL | 590 IU/dl | 109.51 mg/dL | 7.54 mg
8 | COc1ccc(C2=NOC(Cc3ccc(OCc4ccccc4)c(OC)c3)C2)c(OC)c1 (stereo unspecified) | 354.8 ng/mL | 664.3 IU/dl | 80.5 mg/dL | 8.01 mg
9 | COc1ccc(C2=NOC(Cc3ccc(O)c(OC)c3)C2)c(OC)c1 (stereo unspecified) | 432.2 ng/mL | 1004 IU/dl | 112 mg/dL | 9.31 mg
10 | COc1cc(CC2CC(c3cccc4ccccc34)=NO2)ccc1OCc1ccccc1 (stereo unspecified) | 444.7 ng/mL | 994.5 IU/dl | 116.3 mg/dL | 9.6 mg
11 | CCOc1ccc(CC2CC(c3ccc(OC)cc3OC)=NO2)cc1OC (stereo unspecified) | 275.5 ng/mL | 729.7 IU/dl | 93 mg/dL | 7.82 mg
12 | COc1ccc(C2=NOC(Cc3ccc(OCCN4CCCC4)c(OC)c3)C2)c(OC)c1 (stereo unspecified) | 429.8 ng/mL | 934.7 IU/dl | 127 mg/dL | 9.82 mg
13 | COc1cc(CC2CC(c3cccc4ccccc34)=NO2)ccc1OCCN1CCCCC1 (stereo unspecified) | 282.5 ng/mL | 603.7 IU/dl | 78.17 mg/dL | 7.23 mg
14 | CCOc1ccc(CC2CC(c3cccc4ccccc34)=NO2)cc1OC (stereo unspecified) | 292.3 ng/mL | 625.7 IU/dl | 72.83 mg/dL | 7.89 mg
